According to ChEMBL document CHEMBL2321748, “Structure-Based Approach for the Discovery of Pyrrolo[3,2-d]pyrimidine-Based EGFR T790M/L858R Mutant Inhibitors” (ACS Med Chem Lett, 2013):
The source made the active and inactive calls. The rule behind the calls is not given here.

Key:
[1] = biological target: Epidermal growth factor receptor (Homo sapiens, UniProt P00533); assay: Inhibition of human wild type EGFR expressed in Sf9 cells using [gamma32P]-ATP after 10 mins by scintillation counting
[2] = test system: Epidermal growth factor receptor (Homo sapiens), P00533 [L858R,T790M]; assay: Time dependent inhibition of human EGFR T790M/L858R mutant expressed in Sf9 cells using [gamma32P]-ATP up to 1 hr by scintillation counting
Chain of Epidermal growth factor receptor (Homo sapiens), P00533 [L858R,T790M] (P00533 whole entry T790M/L858R, looked up): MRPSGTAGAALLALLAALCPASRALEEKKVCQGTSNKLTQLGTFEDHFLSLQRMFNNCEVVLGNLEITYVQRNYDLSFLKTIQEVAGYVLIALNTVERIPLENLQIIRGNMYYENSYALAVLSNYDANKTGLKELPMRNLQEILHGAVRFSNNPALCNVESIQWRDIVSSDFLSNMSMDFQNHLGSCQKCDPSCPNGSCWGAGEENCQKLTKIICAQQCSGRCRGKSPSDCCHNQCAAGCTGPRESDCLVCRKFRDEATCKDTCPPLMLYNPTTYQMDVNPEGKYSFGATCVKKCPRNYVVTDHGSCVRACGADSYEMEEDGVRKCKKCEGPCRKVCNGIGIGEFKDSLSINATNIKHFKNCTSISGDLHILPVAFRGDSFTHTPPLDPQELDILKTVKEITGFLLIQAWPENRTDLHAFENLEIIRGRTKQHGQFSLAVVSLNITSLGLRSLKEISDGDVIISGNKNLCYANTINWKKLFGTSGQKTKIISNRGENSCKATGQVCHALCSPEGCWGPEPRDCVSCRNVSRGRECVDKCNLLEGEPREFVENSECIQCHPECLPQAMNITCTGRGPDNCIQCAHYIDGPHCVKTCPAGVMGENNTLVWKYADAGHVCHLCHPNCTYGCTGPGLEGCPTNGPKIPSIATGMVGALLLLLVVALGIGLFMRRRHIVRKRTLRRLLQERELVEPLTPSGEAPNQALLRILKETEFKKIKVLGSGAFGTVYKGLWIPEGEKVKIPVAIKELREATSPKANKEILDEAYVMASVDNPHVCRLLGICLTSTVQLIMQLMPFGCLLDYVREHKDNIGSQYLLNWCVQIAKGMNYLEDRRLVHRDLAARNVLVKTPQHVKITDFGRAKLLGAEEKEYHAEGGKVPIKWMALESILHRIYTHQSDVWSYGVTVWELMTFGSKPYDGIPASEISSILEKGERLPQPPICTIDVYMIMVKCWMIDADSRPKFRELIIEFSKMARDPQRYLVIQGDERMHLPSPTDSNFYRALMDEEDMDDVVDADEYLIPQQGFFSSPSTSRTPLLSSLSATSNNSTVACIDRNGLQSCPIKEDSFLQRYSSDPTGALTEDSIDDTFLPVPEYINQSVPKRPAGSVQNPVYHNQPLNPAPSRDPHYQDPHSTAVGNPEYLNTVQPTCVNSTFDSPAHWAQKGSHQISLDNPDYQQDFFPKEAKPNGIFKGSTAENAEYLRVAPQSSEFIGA

Chain of Epidermal growth factor receptor (P00533 whole entry): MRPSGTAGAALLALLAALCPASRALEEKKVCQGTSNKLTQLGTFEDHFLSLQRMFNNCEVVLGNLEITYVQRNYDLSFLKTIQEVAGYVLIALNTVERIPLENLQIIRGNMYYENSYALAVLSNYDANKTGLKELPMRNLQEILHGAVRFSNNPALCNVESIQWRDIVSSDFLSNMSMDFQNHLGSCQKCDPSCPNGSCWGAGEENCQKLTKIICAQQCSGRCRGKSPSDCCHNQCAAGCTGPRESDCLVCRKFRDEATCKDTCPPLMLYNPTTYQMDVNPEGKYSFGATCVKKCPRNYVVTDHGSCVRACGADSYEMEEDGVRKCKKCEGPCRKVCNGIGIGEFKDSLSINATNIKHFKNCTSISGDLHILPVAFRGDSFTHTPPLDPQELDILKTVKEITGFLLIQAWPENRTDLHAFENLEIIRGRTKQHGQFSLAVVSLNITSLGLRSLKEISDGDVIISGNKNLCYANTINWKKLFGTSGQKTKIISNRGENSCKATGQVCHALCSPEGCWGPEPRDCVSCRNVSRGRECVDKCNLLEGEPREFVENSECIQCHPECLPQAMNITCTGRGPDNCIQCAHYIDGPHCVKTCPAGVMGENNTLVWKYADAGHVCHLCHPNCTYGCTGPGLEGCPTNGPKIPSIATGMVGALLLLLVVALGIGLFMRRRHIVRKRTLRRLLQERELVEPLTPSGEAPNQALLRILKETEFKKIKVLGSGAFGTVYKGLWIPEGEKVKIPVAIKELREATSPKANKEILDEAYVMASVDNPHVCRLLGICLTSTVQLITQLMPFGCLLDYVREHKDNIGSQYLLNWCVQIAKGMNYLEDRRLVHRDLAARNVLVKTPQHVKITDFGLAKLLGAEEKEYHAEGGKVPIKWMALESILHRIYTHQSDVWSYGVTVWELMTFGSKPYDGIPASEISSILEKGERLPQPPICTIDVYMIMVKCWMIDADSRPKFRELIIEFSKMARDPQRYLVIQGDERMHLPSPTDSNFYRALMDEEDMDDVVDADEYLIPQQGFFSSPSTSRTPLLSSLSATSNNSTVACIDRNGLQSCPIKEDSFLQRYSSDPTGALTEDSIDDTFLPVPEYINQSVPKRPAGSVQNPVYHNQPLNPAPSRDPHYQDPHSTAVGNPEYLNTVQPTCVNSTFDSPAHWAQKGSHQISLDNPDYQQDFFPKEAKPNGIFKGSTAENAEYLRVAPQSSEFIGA

IC50 [1]	inhibition [2]	SMILES
6.9 nM	–	O=C(Nc1cccc(Oc2ccc(Nc3ncnc4ccn(CCOCCO)c34)cc2Cl)c1)NC1CCCCC1
4.6 nM	inactive	CN(C)C/C=C/C(=O)NCCn1ccc2ncnc(Nc3ccc(Oc4cccc(C(F)(F)F)c4)c(Cl)c3)c21
